Experimental data as given in US12336981B2, “Compounds and compositions for the inhibition of NAMPT” (Valo Health, Inc., priority 2010, dated 2025).
pIC50: −log10 of the molar value. Where “and” joins values, the source holds several entries; their conditions need not be identical. Equal values may be shown once. Read-outs that look alike come from different tables or passages of the source.

Target: T1, NAMPT (Homo sapiens, UniProt P43490)
T1 construct: His tag; host or cells: E. coli
Assay: Biochemical inhibition assay: NAMPT enzymatic reaction, NMN quantified by mass spectrometry
Details: read-out: Biochem IC50
Protocol: Biochemical Inhibition Assay
NAMPT Protein Purification
Recombinant His-tagged NAMPT was produced in E. coli cells, purified over a Ni column, and further purified over a size-exclusion column by XTAL Biostructures.
The NAMPT Enzymatic Reaction
The NAMPT enzymatic reactions were carried out in Buffer A (50 mM Hepes pH 7.5, 50 mM NaCl, 5 mM MgCl2, and 1 mM THP) in 96-well V-bottom plates. The compound titrations were performed in a separate dilution plate by serially diluting the compounds in DMSO to make a 100× stock. […] The compound and enzyme mix was incubated for 15 minutes at room temperature, then 10 μL of 10× substrate and co-factors in Buffer A were added to the test well to make a final concentration of 1 μM NAM, 100 μM 5-Phospho-D-ribose 1-diphosphate (PRPP), and 2.5 mM Adenosine 5′-triphosphate (ATP). The reaction was allowed to proceed for 30 minutes at room temperature, then was quenched with the addition of 11 μL of a solution of formic acid and L-Cystathionine to make a final concentration of 1% formic acid and 10 μM L-Cystathionine. Background and signal strength was determined by addition (or non-addition) of a serial dilution of NMN to a pre-quenched enzyme and cofactor mix.
A mass spectrometry-based assay was used to measure the NAMPT reaction product (NMN) and the internal control (L-Cystathionine). NMN and L-Cystathionine were detected using the services of Biocius Lifesciences with the RapidFire system. In short, the NMN and L-Cystathionine are bound to a graphitic carbon cartridge in 0.1% formic acid, eluted in 30% acetonitrile buffer, and injected into a Sciex 4000 mass spectrometer. The components of the sample were ionized with electrospray ionization and the positive ions were detected. […] The fragments are quantified and the analyzed by the following method.
First the NMN signal is normalized to the L-Cystathionine signal by dividing the NMN signal by the L-Cystathionine signal for each well. The signal from the background wells are averaged and subtracted from the test plates. […] IC50s are Determined Using Excel and this Formula.

T1 sequence (P43490 whole entry): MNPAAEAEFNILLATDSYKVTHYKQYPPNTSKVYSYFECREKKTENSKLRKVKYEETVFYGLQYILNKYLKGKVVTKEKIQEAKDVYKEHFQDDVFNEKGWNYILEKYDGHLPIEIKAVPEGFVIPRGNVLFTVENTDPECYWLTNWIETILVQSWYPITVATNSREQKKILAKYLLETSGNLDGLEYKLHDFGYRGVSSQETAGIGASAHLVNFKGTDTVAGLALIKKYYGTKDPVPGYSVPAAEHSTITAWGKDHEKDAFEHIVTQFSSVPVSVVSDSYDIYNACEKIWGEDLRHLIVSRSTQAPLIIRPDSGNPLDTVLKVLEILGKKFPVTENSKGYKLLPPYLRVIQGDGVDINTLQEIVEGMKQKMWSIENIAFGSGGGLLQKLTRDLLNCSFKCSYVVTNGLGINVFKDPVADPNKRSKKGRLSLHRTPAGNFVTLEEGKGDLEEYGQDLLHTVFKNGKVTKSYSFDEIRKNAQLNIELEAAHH

Row | Molecule | pIC50 (NAMPT enzymatic reaction) | pIC50 (NAMPT enzymatic assay)
1 | CCCOc1ccc(S(=O)(=O)c2ccc(CNC(=O)c3cc4cnccc4[nH]3)cc2)cc1Cl | 7.13 | –
2 | O=C(NCc1ccc(S(=O)(=O)c2ccc(Cn3ccnc3)cc2)cc1)c1cc2ccncc2o1 | – | 7.72
3 | Cc1ccc(S(=O)(=O)c2ccc(CNC(=O)c3cnc4[nH]ncc4c3)cc2)cc1Cl | 8.21 | –
4 | O=C(NC1CCCC1)c1cccc(S(=O)(=O)c2ccc(CNC(=O)c3cc4ccncc4o3)cc2)c1 | – | 8.18
5 | O=C(NCc1ccc(S(=O)(=O)c2cccc(N3CCOCC3)c2)cc1)c1cc2ccncc2[nH]1 | – | 7.68 and 8.08
6 | CC(C)(C)c1cccc(S(=O)(=O)c2ccc(CNC(=O)c3ccc4nccn4c3)cc2)c1 | 8.01 | –
7 | O=C(NCc1ccc(S(=O)(=O)c2cccc3c2sc2ccccc23)cc1)c1cc2cnccc2[nH]1 | – | 8.46
8 | COc1cccc(S(=O)(=O)c2ccc(CNC(=O)c3cc4ccncc4o3)cc2)n1 [N-{[4-(6-methoxypyridine-2-sulfonyl)phenyl]methyl}furo[2,3-c]pyridine-2-carboxamide] | – | 8.60
9 | CN(C)S(=O)(=O)c1cccc(S(=O)(=O)c2ccc(CNC(=O)c3cc4ccncc4o3)cc2)c1 | – | 8.70
10 | N-({4-[(2,4-dichloro-3-methoxybenzene)sulfonyl]phenyl}methyl)-1H-pyrazolo[3,4-b]pyridine-5-carboxamide | 7.70 | –
11 | CCS(=O)(=O)c1cccc(S(=O)(=O)c2ccc(CNC(=O)c3cc4ccncc4o3)cc2)c1 | – | 8.57

Second part, the molecule after the results:

Row | pIC50 (NAMPT enzymatic reaction) | pIC50 (NAMPT enzymatic assay) | Molecule
12 | – | 8.80 | O=C(NCc1ccc(S(=O)(=O)c2cncc3ccccc23)cc1)c1cnc2nccn2c1 [N-{[4-(isoquinoline-4-sulfonyl)phenyl]methyl}imidazo[1,2-a]pyrimidine-6-carboxamide]
13 | – | 8.00 | O=C(NCc1ccc(S(=O)(=O)c2ccc(F)c(OCC(F)(F)F)c2)cc1)c1cnc2[nH]ncc2c1 [N-[(4-{[4-fluoro-3-(2,2,2-trifluoroethoxy)benzene]sulfonyl}phenyl)methyl]-1H-pyrazolo[3,4-b]pyridine-5-carboxamide]
14 | – | 8.38 | O=C(NCc1ccc(S(=O)(=O)c2cnc3ccccc3c2)cc1)c1cc2ccncc2o1 [N-{[4-(quinoline-3-sulfonyl)phenyl]methyl}furo[2,3-c]pyridine-2-carboxamide]
15 | 7.72 | – | COc1ccc(Cl)cc1S(=O)(=O)c1ccc(CNC(=O)c2ccc3nccn3c2)cc1
16 | – | 7.71 | O=C(NCc1ccc(S(=O)(=O)c2cc(C(F)(F)F)ccn2)cc1)c1ccc2nccn2c1 [N-({4-[4-(trifluoromethyl)pyridine-2-sulfonyl]phenyl}methyl)imidazo[1,2-a]pyridine-6-carboxamide]
17 | 8.10 | – | O=C(NCc1ccc(S(=O)(=O)c2ccccc2OC(F)(F)F)cc1)c1ccc2nccn2c1 [N-(4-(2-(trifluoromethoxy)phenylsulfonyl)benzyl)imidazo[1,2-a]pyridine-6-carboxamide]
18 | – | 8.37 | CC(C)Oc1ccc(S(=O)(=O)c2ccc(CNC(=O)c3cnc4nccn4c3)cc2)cc1
19 | 8.10 | – | CCCOc1ccc(Cl)cc1S(=O)(=O)c1ccc(CNC(=O)c2ccc3nccn3c2)cc1
20 | – | 8.82 | CCCS(=O)(=O)Nc1cccc(S(=O)(=O)c2ccc(CNC(=O)c3cc4ccncc4s3)cc2)c1
21 | – | 8.10 | Cc1nc(-c2cccc(S(=O)(=O)c3ccc(CNC(=O)c4cc5ccncc5o4)cc3)c2)no1
22 | – | 7.61 | O=C(NCc1ccc(S(=O)(=O)c2cncc(Cl)c2)cc1)c1ccc2nccn2c1 [N-{[4-(5-chloropyridine-3-sulfonyl)phenyl]methyl}imidazo[1,2-a]pyridine-6-carboxamide]
23 | – | 8.10 | O=C(NCc1ccc(S(=O)(=O)c2ccc(F)c(C(F)(F)F)c2)cc1)c1cnc2nccn2c1
24 | – | 8.60 | Cn1cc2ccc(S(=O)(=O)c3ccc(CNC(=O)c4cc5cnccc5[nH]4)cc3)cc2n1 [N-{[4-(2-methyl-2H-indazole-6-sulfonyl)phenyl]methyl}-1H-pyrrolo[3,2-c]pyridine-2-carboxamide]
25 | – | 7.61 | O=C(NCc1ccc(S(=O)(=O)c2cccc3c2OCC3)cc1)c1cnc2[nH]ncc2c1 [N-{[4-(2,3-dihydro-1-benzofuran-7-sulfonyl)phenyl]methyl}-1H-pyrazolo[3,4-b]pyridine-5-carboxamide]
